Experimental findings from patent US8158628B2, “Sulfonylated 1,2,3,4-tetrahydropyrrolo[1,2-a]pyrazine compounds and their use as pharmaceuticals” (Gruenenthal GmbH, priority 2009, dated 2012) are described below.

One experiment has as its target T1, B1R of the rat (Rattus norvegicus, UniProt P97583).
T1 construct: expressed in transfected cells; host or cells: CHO K1 cells (Chinese hamster ovary), stably transfected
T1 sequence (P97583 1-337): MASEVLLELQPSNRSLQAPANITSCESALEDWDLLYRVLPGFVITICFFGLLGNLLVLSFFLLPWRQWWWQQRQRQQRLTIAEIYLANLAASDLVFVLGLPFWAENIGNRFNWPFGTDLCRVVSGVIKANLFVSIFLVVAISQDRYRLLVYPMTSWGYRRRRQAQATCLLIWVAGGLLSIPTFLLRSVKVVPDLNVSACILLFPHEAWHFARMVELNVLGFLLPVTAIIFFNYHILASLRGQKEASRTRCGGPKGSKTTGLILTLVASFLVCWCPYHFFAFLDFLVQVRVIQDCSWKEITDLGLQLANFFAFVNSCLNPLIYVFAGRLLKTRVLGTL
As to the kind of experiment: FLIPR Ca2+ functional assay, B1R antagonism, rat B1R in CHO K1 cells. Format: cell-based. The following applies: test substance 10 μM; rB1R CHO K1 cells; agonist Des-Arg9 bradykinin at EC80; % of maximum achievable inhibition. The procedure, abridged:
(§1)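 IC50 values come from varied compound concentrations applied 10-20 min before an EC80 agonist challenge, with Des-Arg9 bradykinin for rat and Lys-Des-Arg9 bradykinin for human receptor. Ca2+ influx in Fluo-4-loaded CHO K1 transfectants was measured by FLIPR peak fluorescence. Data are % inhibition vs maximum, n=2-3, N>=2.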

The target in another experiment is T2, human B1R (Homo sapiens, UniProt P46663).
T2 construct: expressed in transfected cells; host or cells: CHO K1 cells (Chinese hamster ovary), stably transfected
T2 sequence (P46663 1-353): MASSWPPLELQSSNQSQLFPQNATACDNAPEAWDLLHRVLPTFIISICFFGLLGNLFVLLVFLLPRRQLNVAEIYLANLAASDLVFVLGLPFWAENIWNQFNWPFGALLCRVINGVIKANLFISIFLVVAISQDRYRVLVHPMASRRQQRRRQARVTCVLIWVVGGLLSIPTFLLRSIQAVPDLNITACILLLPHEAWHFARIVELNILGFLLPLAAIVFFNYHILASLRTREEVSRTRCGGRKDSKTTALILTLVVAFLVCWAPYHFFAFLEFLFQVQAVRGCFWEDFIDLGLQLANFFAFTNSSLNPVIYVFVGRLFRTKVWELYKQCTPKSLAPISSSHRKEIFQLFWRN
The experiment is described as follows: FLIPR Ca2+ functional assay, B1R antagonism, human B1R in CHO K1 cells. Format: cell-based. Particulars: test substance 10 μM; hB1R CHO K1 cells; agonist Lys-Des-Arg9 bradykinin at EC80; % of maximum achievable inhibition. The procedure, abridged:
as §1

In the case of `COc1ccc2cc(S(=O)(=O)N3CCn4cccc4C3CC(=O)NC3CCc4cc(CNC(C)(C)C)ccc4C3)ccc2c1` (centres unmarked) [Example 31, N-(6-((tert-Butylamino)methyl)-1,2,3,4-tetrahydronaphthalen-2-yl)-2-(2-(6-methoxynaphthalen-2-ylsulfonyl)-1,2,3,4-tetrahydropyrrolo[1,2-a]-pyrazin-1-yl)acetamide], the figures for the inhibition at 10 µM at B1R of the rat and on human B1R were 104% and 100%, respectively.
Taken in the same sequence, the figures for `COc1cc(C)c(S(=O)(=O)N2CCn3cccc3C2COCC(=O)NC2CCN(c3ccc(C(F)(F)F)cn3)CC2)c(C)c1` (centres unmarked) [Example 32, 2-[[2-[(4-Methoxy-2,6-dimethyl-phenyl)sulfonyl]-1,2,3,4-tetrahydro-pyrrolo[1,2-a]pyrazin-1-yl]-methoxy]-N-[1-[5-(trifluoromethyl)-pyridin-2-yl]-piperidin-4-yl]-acetamide] were 65.5% and 8.84%.
In the same order, the values of `COc1cc(C)c(S(=O)(=O)N2CCn3cccc3C2COCC(=O)NC2CCN(c3ccc(C(F)(F)F)cn3)C2)c(C)c1` (centres unmarked) [Example 33, 2-[[2-[(4-Methoxy-2,6-dimethyl-phenyl)sulfonyl]-1,2,3,4-tetrahydro-pyrrolo[1,2-a]pyrazin-1-yl]-methoxy]-N-[1-[5-(trifluoromethyl)-pyridin-2-yl]-pyrrolidin-3-yl]-acetamide] are 58.1% and 15.7%.
In the same order, the values of `COc1cc(C)c(S(=O)(=O)N2CCn3cccc3C2COCC(=O)N2CCC(c3ccncc3)CC2)c(C)c1` (centres unmarked) [Example 34, 2-[[2-[(4-Methoxy-2,6-dimethyl-phenyl)sulfonyl]-1,2,3,4-tetrahydro-pyrrolo[1,2-a]pyrazin-1-yl]-methoxy]-1-(4-pyridin-4-yl-piperidin-1-yl)-ethanone] are 103% and 99.2%.
On to `COc1cc(C)c(S(=O)(=O)N2CCn3cccc3C2COCC(=O)N2CCC(Cc3ccncc3)CC2)c(C)c1` (centres unmarked) [Example 35, 2-[[2-[(4-Methoxy-2,6-dimethyl-phenyl)sulfonyl]-1,2,3,4-tetrahydro-pyrrolo[1,2-a]pyrazin-1-yl]-methoxy]-1-[4-(pyridin-4-yl-methyl)-piperidin-1-yl]-ethanone], for which the results for the inhibition at 10 µM at B1R of the rat and at human B1R were 101% and 97.7%, respectively.
For the molecule `COc1cc(C)c(S(=O)(=O)N2CCn3cccc3C2COCC(=O)NC2CCN(c3ccncc3)CC2)c(C)c1` (centres unmarked) [Example 36, 2-[[2-[(4-Methoxy-2,6-dimethyl-phenyl)sulfonyl]-1,2,3,4-tetrahydro-pyrrolo[1,2-a]pyrazin-1-yl]-methoxy]-N-(1-pyridin-4-yl-piperidin-4-yl)-acetamide], the inhibition – broadly, the relative decrease from the control value, in per cent – at 10 µM on B1R of the rat is 103%; at human B1R, 97.5%.
With `COc1cc(C)c(S(=O)(=O)N2CCn3cccc3C2COCC(=O)N2CCC(CN3CCN(C)CC3)C2)c(C)c1` (centres unmarked) [Example 37, 2-[[2-[(4-Methoxy-2,6-dimethyl-phenyl)sulfonyl]-1,2,3,4-tetrahydro-pyrrolo[1,2-a]pyrazin-1-yl]-methoxy]-1-[3-[(4-methyl-piperazin-1-yl)-methyl]-pyrrolidin-1-yl]-ethanone], the inhibition at 10 µM at B1R of the rat came out at 104%; at human B1R, 97.8%.
Taken in the same sequence, the figures for `COc1cc(C)c(S(=O)(=O)N2CCn3cccc3C2COCC(=O)N2CCC(Oc3ccncc3)C2)c(C)c1` (centres unmarked) [Example 38, 2-[[2-[(4-Methoxy-2,6-dimethyl-phenyl)sulfonyl]-1,2,3,4-tetrahydro-pyrrolo[1,2-a]pyrazin-1-yl]-methoxy]-1-(3-pyridin-4-yloxy-pyrrolidin-1-yl)-ethanone] were 104% and 98.1%.
In the same order, the values of `COc1cc(C)c(S(=O)(=O)N2CCn3cccc3C2COCC(=O)N(C)C2CCN(c3ccncc3)CC2)c(C)c1` (centres unmarked) [Example 39, 2-[[2-[(4-Methoxy-2,6-dimethyl-phenyl)sulfonyl]-1,2,3,4-tetrahydro-pyrrolo[1,2-a]pyrazin-1-yl]-methoxy]-N-methyl-N-(1-pyridin-4-yl-piperidin-4-yl)-acetamide] are 105% and 99.6%.
Taken in the same sequence, the figures for `COc1cc(C)c(S(=O)(=O)N2CCn3cccc3C2COCC(=O)N2CCC(N3CC4CC3CN4C)CC2)c(C)c1` (centres unmarked) [Example 40, 2-[[2-[(4-Methoxy-2,6-dimethyl-phenyl)sulfonyl]-1,2,3,4-tetrahydro-pyrrolo[1,2-a]pyrazin-1-yl]-methoxy]-1-[4-(3-methyl-3,6-diazabicyclo[2.2.1]heptan-6-yl)-piperidin-1-yl]-ethanone] were 94.9% and 99.6%.
As for `COc1ccc2cc(S(=O)(=O)N3CCn4cccc4C3CC(=O)NCCc3ccc(C4=NCCN4)cc3)ccc2c1` (centres unmarked) [Example 41, N-[2-[4-(4,5-Dihydro-1H-imidazol-2-yl)-phenyl]-ethyl]-2-[2-[(6-methoxy-naphthalen-2-yl)sulfonyl]-1,2,3,4-tetrahydro-pyrrolo[1,2-a]pyrazin-1-yl]-acetamide], the results for the inhibition at 10 µM on B1R of the rat and at human B1R were 103% and 100%, respectively.
Taken in the same sequence, the figures for `Cc1ccc(S(=O)(=O)N2CCn3cccc3C2CC(=O)N[C@@H]2CCCc3cc(CNC(C)(C)C)ccc32)cc1` (stereo partly drawn) [Example 42, N-[(1R)-6-[(tert-Butylamino)-methyl]-1,2,3,4-tetrahydro-naphthalen-1-yl]-2-[2-(p-tolylsulfonyl)-1,2,3,4-tetrahydro-pyrrolo[1,2-a]pyrazin-1-yl]-acetamide] were 107% and 99.9%.
In the same order, the values of `COc1ccc2cc(S(=O)(=O)N3CCn4cccc4C3CC(=O)N(C)C3CCc4cc(CN5CCCCC5)ccc4C3)ccc2c1` (centres unmarked) [Example 43, 2-[2-[(6-Methoxy-naphthalen-2-yl)sulfonyl]-1,2,3,4-tetrahydro-pyrrolo[1,2-a]pyrazin-1-yl]-N-methyl-N-[6-(piperidin-1-yl-methyl)-1,2,3,4-tetrahydro-naphthalen-2-yl]-acetamide] are 103% and 99.5%.
Taken in the same sequence, the figures for `Cc1ccc(S(=O)(=O)N2CCn3cccc3C2CC(=O)N[C@@H]2CCCc3cc(CN4CCC(F)CC4)ccc32)cc1` (stereo partly drawn) [Example 44, N-[(1R)-6-[(4-Fluoro-piperidin-1-yl)-methyl]-1,2,3,4-tetrahydro-naphthalen-1-yl]-2-[2-(p-tolylsulfonyl)-1,2,3,4-tetrahydro-pyrrolo[1,2-a]pyrazin-1-yl]-acetamide] were 104% and 99.3%.
For the molecule `Cc1ccc(S(=O)(=O)N2CCn3cccc3C2CC(=O)N[C@@H]2CCCc3cc(CNCC(F)(F)F)ccc32)cc1` (stereo partly drawn) [Example 45, 2-(2-Tosyl-1,2,3,4-tetrahydropyrrolo[1,2-a]pyrazin-1-yl)-N—((R)-6-((2,2,2-trifluoroethylamino)methyl)-1,2,3,4-tetrahydronaphthalen-1-yl)acetamide], the inhibition at 10 µM on B1R of the rat was 64%; on human B1R it was 50.6%.
With `Cc1ccc(S(=O)(=O)N2CCn3cccc3C2CC(=O)N[C@H](C)c2ccc(CNC(C)(C)C)cc2)cc1` (stereo partly drawn) [Example 46, N-[(1R)-1-[4-[(tert-Butylamino)-methyl]-phenyl]-ethyl]-2-[2-(p-tolylsulfonyl)-1,2,3,4-tetrahydro-pyrrolo[1,2-a]pyrazin-1-yl]-acetamide], the inhibition at 10 µM on B1R of the rat amounted to 29%; at human B1R, 55.8%.
Consider `O=C(CC1c2cccn2CCN1S(=O)(=O)c1cccc(Cl)c1)NC1CCc2cc(CN3CCCCC3)ccc2C1` (centres unmarked) [Example 47, 2-(2-(3-chlorophenylsulfonyl)-1,2,3,4-tetrahydropyrrolo[1,2-a]-pyrazin-1-yl)-N-(6-(piperidin-1-ylmethyl)-1,2,3,4-tetrahydronaphthalen-2-yl)-acetamide], for which the results for the inhibition at 10 µM on B1R of the rat and at human B1R were 106% and 99.9%, respectively.
Taken in the same sequence, the figures for `COc1ccc2cc(S(=O)(=O)N3CCn4cccc4C3CC(=O)NC3Cc4ccc(CN5CCCCC5)cc4C3)ccc2c1` (centres unmarked) [Example 48, 2-(2-(6-methoxynaphthalen-2-ylsulfonyl)-1,2,3,4-tetrahydropyrrolo-[1,2-a]pyrazin-1-yl)-N-(5-(piperidin-1-ylmethyl)-2,3-dihydro-1H-inden-2-yl)-acetamide] were 105% and 99.6%.
In the same order, the values of `Cc1ccc(S(=O)(=O)N2CCn3cccc3C2CC(=O)NC2CCc3cc(CN4CCCC4)ccc3C2)cc1Cl` (centres unmarked) [Example 49, 2-[2-[(3-Chloro-4-methyl-phenyl)sulfonyl]-1,2,3,4-tetrahydro-pyrrolo[1,2-a]pyrazin-1-yl]-N-[6-(pyrrolidin-1-yl-methyl)-1,2,3,4-tetrahydro-naphthalen-2-yl]-acetamide] are 100% and 99.9%.
